Data taken from patent publication US20250296971A1, “GASTRIC INHIBITORY PEPTIDE RECEPTOR LIGANDS” (priority 2021, published 2025).
*1 amine or outer side, *2 acyl side, *3 side chain or, on linkers, in order; H or OH if unused. Where a SMILES comes first, the peptide text is derived from it. Bridges are numbered along the chain shown (N, C = ends). [ ]: non-standard residue; d: D form. The star is where a group is joined. X5 = NC(=O)[C@H](CCCCNC(=O)CN1CCN(CC(=O)O)CCN(CC(=O)O)CCN(CC(=O)O)CC1)NC(=O)CCC(=O)NCCCOCCOCCOCCCN*; X25 = NC(=O)C(CCCCNC(=O)CN1CCN(CC(=O)O)CCN(CC(=O)O)CCN(CC(=O)O)CC1)NC(=O)CCC(=O)NCCCOCCOCCOCCCN*; Propanoyl(3-(1-naphthyl)) = O=C(CCc1cccc2ccccc12)*; Trp(5-OH) = N[C@@H](Cc1c[nH]c2ccc(O)cc12)C(=O)O; NMeW = CN[C@@H](Cc1c[nH]c2ccccc12)C(=O)O; 1Nal = N[C@@H](Cc1cccc2ccccc12)C(=O)O; 2Nal = N[C@@H](Cc1ccc2ccccc2c1)C(=O)O; mXylylene = c1cc(C[*:1])cc(C[*:2])c1; Cha = N[C@@H](CC1CCCCC1)C(=O)O; αMeL = CC(C)C[C@](C)(N)C(=O)O; NMeC = CN[C@@H](CS)C(=O)O; Aib = CC(C)(N)C(=O)O

target: T1, GIPR (CHO-K1-hGIPR cells) (Homo sapiens, UniProt P48546); experiment: FACS binding assay; details: competition with 20 nM GIP-057, 4° C. for 1 hour, read-out: pIC50 Category (converted)
T1 construct: host or cells: CHO-K1
T1 sequence (P48546 22-466): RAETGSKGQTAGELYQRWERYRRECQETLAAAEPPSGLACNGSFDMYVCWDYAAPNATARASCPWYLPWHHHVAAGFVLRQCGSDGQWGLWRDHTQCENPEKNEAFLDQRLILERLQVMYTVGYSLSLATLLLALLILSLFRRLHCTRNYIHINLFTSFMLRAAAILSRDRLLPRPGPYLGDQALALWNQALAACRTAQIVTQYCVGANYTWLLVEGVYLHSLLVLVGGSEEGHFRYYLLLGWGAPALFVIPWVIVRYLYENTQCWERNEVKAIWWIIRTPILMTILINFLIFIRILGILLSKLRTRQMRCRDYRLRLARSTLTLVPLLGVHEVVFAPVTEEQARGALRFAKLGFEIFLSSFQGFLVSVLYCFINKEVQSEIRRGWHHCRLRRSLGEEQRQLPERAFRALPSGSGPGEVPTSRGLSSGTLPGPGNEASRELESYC
Outline: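 Read-out: flow cytometric median fluorescence intensity, APC/Cy5 channel, plotted vs peptide conc.; 4PL fit → EC50/pEC50 or IC50/pIC50. Cells: CHO-K1-hGIPR, Accutase-detached, 500.000/mL in PBS + 1% FCS. Detection: APC-streptavidin 1 μg/mL, 30 min, on ice.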

| Compound | IC50 |
| --- | --- |
| CC[C@H](C)[C@@H]1NC(=O)[C@H](CC(C)C)NC(=O)C(C)(C)NC(=O)[C@@H](N(C)C(=O)[C@H](CC(C)C)NC(=O)[C@H](CCC(=O)O)NC(=O)[C@@H]2CCCN2C(=O)[C@H](Cc2c[nH]c3ccccc23)NC(=O)[C@H](Cc2c[nH]c3ccccc23)NC(=O)[C@H](CC(=O)O)NC(C)=O)CSCc2cccc(c2)CSC[C@@H](C(=O)NCCCOCCOCCOCCCNC(=O)CCC(=O)N[C@@H](CCCCNC(=O)CN2CCN(CC(=O)O)CCN(CC(=O)O)CCN(CC(=O)O)CC2)C(N)=O)NC1=O [GIP-291, Ac-Asp-Trp-Trp-Pro-Glu-Leu-[Nmc(3MeBn)-Aib-Leu-Ile-Cys]-Ttds-Lys(DOTA)-NH2] (Ac-DWWPEL[NMeC][Aib]LIC-X5; linker 7-11 via mXylylene) | > 1000 nM |
| CC[C@H](C)[C@@H]1NC(=O)[C@H](CC(C)C)NC(=O)C(C)(C)NC(=O)[C@@H](NC(=O)[C@H](CC(C)C)NC(=O)[C@H](CCC(=O)O)NC(=O)[C@@H]2CCCN2C(=O)[C@H](Cc2c[nH]c3ccccc23)NC(=O)[C@H](Cc2c[nH]c3ccccc23)NC(=O)[C@H](CC(=O)O)NC(C)=O)CSCc2cccc(c2)CSC[C@@H](C(=O)NCCCOCCOCCOCCCNC(=O)CCC(=O)N[C@@H](CCCCNC(=O)CN2CCN(CC(=O)O)CCN(CC(=O)O)CCN(CC(=O)O)CC2)C(N)=O)N(C)C1=O [GIP-292, Ac-Asp-Trp-Trp-Pro-Glu-Leu-[Cys(3MeBn)-Aib-Leu-Ile-Nmc]-Ttds-Lys(DOTA)-NH2] (Ac-DWWPELC[Aib]LI[NMeC]-X5; linker 7-11 via mXylylene) | > 1000 nM |
| CC[C@H](C)[C@@H]1NC(=O)[C@H](CC(C)C)NC(=O)C(C)(C)NC(=O)[C@@H](NC(=O)[C@H](CC(C)C)NC(=O)[C@H](CCC(=O)O)NC(=O)[C@@H]2CCCN2C(=O)[C@H](Cc2c[nH]c3ccccc23)NC(=O)[C@H](Cc2cccc3ccccc23)NC(=O)[C@H](CC(=O)O)NC(C)=O)CSCc2cccc(c2)CSC[C@@H](C(=O)NCCCOCCOCCOCCCNC(=O)CCC(=O)N[C@@H](CCCCNC(=O)CN2CCN(CC(=O)O)CCN(CC(=O)O)CCN(CC(=O)O)CC2)C(N)=O)NC1=O [GIP-293, Ac-Asp-1Ni-Trp-Pro-Glu-Leu-[Cys(3MeBn)-Aib-Leu-Ile-Cys]-Ttds-Lys(DOTA)-NH2] (Ac-D[1Nal]WPELC[Aib]LIC-X5; linker 7-11 via mXylylene) | > 1000 nM |
| CC[C@H](C)[C@@H]1NC(=O)[C@H](CC(C)C)NC(=O)C(C)(C)NC(=O)[C@@H](NC(=O)[C@H](CC(C)C)NC(=O)[C@H](CCC(=O)O)NC(=O)[C@@H]2CCCN2C(=O)[C@H](Cc2ccc3ccccc3c2)NC(=O)[C@H](Cc2c[nH]c3ccccc23)NC(=O)[C@H](CC(=O)O)NC(C)=O)CSCc2cccc(c2)CSC[C@@H](C(=O)NCCCOCCOCCOCCCNC(=O)CCC(=O)NC(CCCCNC(=O)CN2CCN(CC(=O)O)CCN(CC(=O)O)CCN(CC(=O)O)CC2)C(N)=O)NC1=O (stereo partly drawn) [GIP-294, Ac-Asp-Trp-2Ni-Pro-Glu-Leu-[Cys(3MeBn)-Aib-Leu-Ile-Cys]-Ttds-Lys(DOTA)-NH2] (Ac-DW[2Nal]PELC[Aib]LIC-X25; linker 7-11 via mXylylene) | > 1000 nM |
| CC[C@H](C)[C@@H]1NC(=O)[C@H](CC(C)C)NC(=O)C(C)(C)NC(=O)[C@@H](NC(=O)[C@H](CC2CCCCC2)NC(=O)[C@H](CCC(=O)O)NC(=O)[C@@H]2CCCN2C(=O)[C@H](Cc2c[nH]c3ccccc23)NC(=O)[C@H](Cc2c[nH]c3ccccc23)NC(=O)[C@H](CC(=O)O)NC(C)=O)CSCc2cccc(c2)CSC[C@@H](C(=O)NCCCOCCOCCOCCCNC(=O)CCC(=O)N[C@@H](CCCCNC(=O)CN2CCN(CC(=O)O)CCN(CC(=O)O)CCN(CC(=O)O)CC2)C(N)=O)NC1=O [GIP-295, Ac-Asp-Trp-Trp-Pro-Glu-Cha-[Cys(3MeBn)-Aib-Leu-Ile-Cys]-Ttds-Lys(DOTA)-NH2] (Ac-DWWPE[Cha]C[Aib]LIC-X5; linker 7-11 via mXylylene) | > 1000 nM |
| CC[C@H](C)[C@@H]1NC(=O)[C@H](CC(C)C)NC(=O)C(C)(C)NC(=O)[C@@H](NC(=O)[C@](C)(CC(C)C)NC(=O)[C@H](CCC(=O)O)NC(=O)[C@@H]2CCCN2C(=O)[C@H](Cc2c[nH]c3ccccc23)NC(=O)[C@H](Cc2c[nH]c3ccccc23)NC(=O)[C@H](CC(=O)O)NC(C)=O)CSCc2cccc(c2)CSC[C@@H](C(=O)NCCCOCCOCCOCCCNC(=O)CCC(=O)N[C@@H](CCCCNC(=O)CN2CCN(CC(=O)O)CCN(CC(=O)O)CCN(CC(=O)O)CC2)C(N)=O)NC1=O [GIP-296, Ac-Asp-Trp-Trp-Pro-Glu-Aml-[Cys(3MeBn)-Aib-Leu-Ile-Cys]-Ttds-Lys(DOTA)-NH2] (Ac-DWWPE[αMeL]C[Aib]LIC-X5; linker 7-11 via mXylylene) | > 1000 nM |
| CC[C@H](C)[C@@H]1NC(=O)[C@H](CC(C)C)NC(=O)C(C)(C)NC(=O)[C@@H](NC(=O)[C@H](CC(C)C)NC(=O)[C@H](CCC(=O)O)NC(=O)[C@@H]2CCCN2C(=O)[C@H](Cc2c[nH]c3ccccc23)NC(=O)[C@H](Cc2c[nH]c3ccccc23)N(C)C(=O)[C@H](CC(=O)O)NC(C)=O)CSCc2cccc(c2)CSC[C@@H](C(=O)NCCCOCCOCCOCCCNC(=O)CCC(=O)N[C@@H](CCCCNC(=O)CN2CCN(CC(=O)O)CCN(CC(=O)O)CCN(CC(=O)O)CC2)C(N)=O)NC1=O [GIP-297, Ac-Asp-Nmw-Trp-Pro-Glu-Leu-[Cys(3MeBn)-Aib-Leu-Ile-Cys]-Ttds-Lys(DO TA)-NH2] (Ac-D[NMeW]WPELC[Aib]LIC-X5; linker 7-11 via mXylylene) | > 1000 nM |
| CC[C@H](C)[C@@H]1NC(=O)[C@H](CC(C)C)NC(=O)C(C)(C)NC(=O)[C@@H](NC(=O)[C@H](CC(C)C)NC(=O)[C@H](CCC(=O)O)NC(=O)[C@@H]2CCCN2C(=O)[C@H](Cc2cccc3ccccc23)NC(C)=O)CSCc2cccc(c2)CSC[C@@H](C(=O)NCCCOCCOCCOCCCNC(=O)CCC(=O)N[C@@H](CCCCNC(=O)CN2CCN(CC(=O)O)CCN(CC(=O)O)CCN(CC(=O)O)CC2)C(N)=O)NC1=O [GIP-298, Ac-1Ni-Pro-Glu-Leu-[Cys(3MeBn)-Aib-Leu-Ile-Cys]-Ttds-Lys(DOTA)-NH2] (Ac-[1Nal]PELC[Aib]LIC-X5; linker 5-9 via mXylylene) | > 1000 nM |

Results, then the compound that gave them:

| IC50 | Compound |
| --- | --- |
| > 1000 nM | CC[C@H](C)[C@@H]1NC(=O)[C@H](CC(C)C)NC(=O)C(C)(C)NC(=O)[C@@H](NC(=O)[C@H](CC(C)C)NC(=O)[C@H](CCC(=O)O)NC(=O)[C@@H]2CCCN2C(=O)CCc2cccc3ccccc23)CSCc2cccc(c2)CSC[C@@H](C(=O)NCCCOCCOCCOCCCNC(=O)CCC(=O)N[C@@H](CCCCNC(=O)CN2CCN(CC(=O)O)CCN(CC(=O)O)CCN(CC(=O)O)CC2)C(N)=O)NC1=O [GIP-299, Nph1p-Pro-Glu-Leu-[Cys(3MeBn)-Aib-Leu-Ile-Cys]-Ttds-Lys(DOTA)-NH2] ({Propanoyl(3-(1-naphthyl))}-PELC[Aib]LIC-X5; linker 4-8 via mXylylene) |
| > 1000 nM | CC(=O)N[C@@H](CC(=O)O)C(=O)N[C@@H](Cc1c[nH]c2ccccc12)C(=O)N[C@@H](Cc1cccc2ccccc12)C(=O)N1CCC[C@H]1C(=O)N[C@@H](CCC(=O)O)C(=O)N[C@H](CC(C)C)C(=O)N[C@H]1CSCc2cccc(c2)CSC[C@@H](C(=O)NCCCOCCOCCOCCCNC(=O)CCC(=O)N[C@@H](CCCCNC(=O)CN2CCN(CC(=O)O)CCN(CC(=O)O)CCN(CC(=O)O)CC2)C(N)=O)NC(=O)[C@@H](C(C)C)NC(=O)[C@H](CC(C)C)NC(=O)[C@H](C)NC1=O [GIP-300, Ac-Asp-Trp-1Ni-Pro-Glu-leu-[Cys(3MeBn)-Ala-Leu-val-Cys]-Ttds-Lys(DOTA)-NH2] (Ac-DW[1Nal]PE[dL]CAL[dV]C-X5; linker 7-11 via mXylylene) |
| > 1000 nM | CC[C@H](C)[C@@H]1NC(=O)[C@H](CC(C)C)NC(=O)C(C)(C)NC(=O)[C@@H](NC(=O)[C@H](CC(C)C)NC(=O)[C@H](CCC(=O)O)NC(=O)[C@@H]2CCCN2C(=O)[C@H](Cc2cccc3ccccc23)NC(=O)[C@H](Cc2c[nH]c3ccccc23)NC(C)=O)CSCc2cccc(c2)CSC[C@@H](C(=O)NCCCOCCOCCOCCCNC(=O)CCC(=O)N[C@@H](CCCCNC(=O)CN2CCN(CC(=O)O)CCN(CC(=O)O)CCN(CC(=O)O)CC2)C(N)=O)NC1=O [GIP-301, Ac-Trp-1Ni-Pro-Glu-Leu-[Cys(3MeBn)-Aib-Leu-Ile-Cys]-Ttds-Lys(DOTA)-NH2] (Ac-W[1Nal]PELC[Aib]LIC-X5; linker 6-10 via mXylylene) |
| > 1000 nM | CC[C@H](C)[C@@H]1NC(=O)[C@H](CC(C)C)NC(=O)C(C)(C)NC(=O)[C@@H](NC(=O)[C@@H](CC(C)C)NC(=O)[C@H](CCC(=O)O)NC(=O)[C@@H]2CCCN2C(=O)[C@H](Cc2c[nH]c3ccc(O)cc23)NC(=O)[C@H](Cc2c[nH]c3ccccc23)NC(=O)[C@H](CC(=O)O)NC(C)=O)CSCc2cccc(c2)CSC[C@@H](C(=O)NCCCOCCOCCOCCCNC(=O)CCC(=O)N[C@@H](CCCCNC(=O)CN2CCN(CC(=O)O)CCN(CC(=O)O)CCN(CC(=O)O)CC2)C(N)=O)NC1=O [GIP-302, Ac-Asp-Trp-Hyw-Pro-Glu-leu-[Cys(3MeBn)-Aib-Leu-Ile-Cys]-Ttds-Lys(DOTA)-NH2] (Ac-DW[Trp(5-OH)]PE[dL]C[Aib]LIC-X5; linker 7-11 via mXylylene) |
